Tested on: moderate-to-severe chronic spontaneous urticaria (CSU)
Experiment: Phase 2 CSU study: urticaria activity score over 7 days (UAS7)
Assay type: in vivo, human
Parameters: key to UAS7 Median / UAS7 Change from baseline Median / UAS7 change from baseline, Q1 / UAS7 change from baseline, Q3 / UAS7 change from baseline, Max / UAS7 Change from baseline LS Mean (SE): UAS7 points; daily UAS score ranges 0–6 points/day, over 7 days
Text: The study comprises a 12 week, randomized, double-blind, placebo-controlled, multi-center, dose-ranging efficacy and safety phase, followed by a 40 week open label extension (OLE) phase (see FIG. 1). The study consists of three phases and an optional OLE phase. […] Clinically, CSU is characterized by the spontaneous and recurrent appearance of pruritic hives. The proposed primary endpoints were the UAS7 at Week 12 in EU and EU reference countries and the ISS7 in the US. Regardless of where a participant was from, all assessments were the same. The UAS7 score is a composite score containing both the HSS7 and the ISS7. This allowed a global assessment of the two key components of urticaria: hives and itch. […] The UAS is a validated PRO measure. […] The daily UAS scores range from 0 to 6 point/day. […] Patients were to complete the UAS using the e-diary. […] The following secondary endpoints were to be analyzed using the same approach as for the primary endpoint: • Change from baseline in UAS7 at Week 4 • Change from baseline in UAS7 at Week 12 (for US and US reference countries) • Change from baseline in ISS7 at Week 12 (except US and US reference countries) • Change from baseline in HSS7 at Week 12 The following responder secondary endpoints were to be analyzed using the Cochran-Mantel-Haenszel test adjusted by region: • Proportion of participants with UAS7<6 at Week 12 • Proportion of participants with UAS7=0 at Week 12 Participants who received selected prohibited medications and/or rescue medications were to be considered as non-responders for time points after the medication usage. For other participants, all available data including those collected during the off-treatment period were to be used to determine the responder/non-responder status. Missing data were to be considered as non-responders.

[1] = Week 11, 400 mg TID, Prior Omalizumab Use
[2] = Week 11, 400 mg TID, omalizumab-naive participants
[3] = Week 12, 400 mg BID, ITT population
[4] = Week 12, 400 mg BID, Omalizumab-Naïve
[5] = Week 12, 400 mg BID, Prior Omalizumab Use
[6] = Week 12, 400 mg BID, omalizumab-naive participants
[7] = Week 12, 400 mg QPM, ITT population
[8] = Week 12, 400 mg QPM, Omalizumab-Naïve
[9] = Week 12, 400 mg QPM, Prior Omalizumab Use
[10] = Week 12, 400 mg QPM, omalizumab-naive participants
[11] = Week 12, 400 mg TID, ITT population
[12] = Week 12, 400 mg TID, Omalizumab-Naïve
[13] = Week 12, 400 mg TID, Prior Omalizumab Use
[14] = Week 12, 400 mg TID, omalizumab-naive participants

In the case of `CC(C)(C=C(C#N)C(=O)N1CCC[C@@H](n2nc(-c3ccc(Oc4ccccc4)cc3F)c3c(N)ncnc32)C1)N1CCN(C2COC2)CC1` [rilzabrutinib, (R)-2-[3-[4-amino-3-(2-fluoro-4-phenoxy-phenyl)pyrazolo[3,4-d]pyrimidin-1-yl]piperidine-1-carbonyl]-4-methyl-4-[4-(oxetan-3-yl)piperazin-1-yl]pent-2-enenitrile], the “UAS7 Change from baseline Mean (SD)” value [1] is reported as −25.94 (15.41), the “UAS7 Change from baseline Median” value [1] is reported as −26.33 and the “UAS7 Mean (SD)” value [1] is reported as 7.08 (11.77). The “UAS7 Median” value [1] was 1.75, the “UAS7 Percent change from baseline Mean (SD)” value (“UAS7 Percent change … (SD)” for short) [1] was −76.09 (31.89) % and the “UAS7 Percent change from baseline Median” value [1] was −92.11%. For the same compound, the “Non-responder, UAS7 reduction from baseline of 10 points or more” value (“Non-responder, UAS7 reduction” for short) [2] was 12 (34.3) n (%), the “OR for rilzabrutinib vs. placebo, UAS7 reduction of 10 points or more” value [2] was 1.839 and the “RRD (%) for rilzabrutinib vs. placebo, UAS7 reduction of 10 points or more” value (“RRD (%) … UAS7 reduction of 10 points or more” below) [2] was 13.6 %. For the same compound, the “Responder, UAS7 reduction from baseline of 10 points or more” value [2] was 23 (65.7) n (%), the “Non-responder, UAS7 reduction” value [3] was 23 (56.1) n (%) and the “OR for rilzabrutinib vs. placebo, UAS7 reduction of 10 points or more” value [3] was 1.041. The “RRD (%) … UAS7 reduction of 10 points or more” value [3] was 1.0 %, the “Responder, UAS7 reduction from baseline of 10 points or more” value [3] was 18 (43.9) n (%) and the “UAS7 Change from baseline Mean (SD)” value [4] was −14.49 (12.08). The “UAS7 Change from baseline Median” value [4] was −12.80, the “UAS7 Mean (SD)” value [4] was 15.61 (13.91) and the “UAS7 Median” value [4] was 14.00. The “UAS7 Percent change … (SD)” value [4] was −50.20 (37.89) %, the “UAS7 Percent change from baseline Median” value [4] was −47.76% and the “UAS7 Change from baseline Mean (SD)” value [5] was −26.00 (18.38). The “UAS7 Change from baseline Median” value [5] was −31.00, the “UAS7 Mean (SD)” value [5] was 8.75 (17.50) and the “UAS7 Median” value [5] was 0.00. The “UAS7 Percent change … (SD)” value [5] was −75.00 (50.00) %, the “UAS7 Percent change from baseline Median” value [5] was −100.00% and the “Non-responder, UAS7 reduction” value [6] was 20 (57.1) n (%). The “OR for rilzabrutinib vs. placebo, UAS7 reduction of 10 points or more” value [6] was 1.069, the “RRD (%) … UAS7 reduction of 10 points or more” value [6] was 1.7 % and the “Responder, UAS7 reduction from baseline of 10 points or more” value [6] was 15 (42.9) n (%). For the same compound, the “Non-responder, UAS7 reduction” value [7] was 24 (63.2) n (%), the “OR for rilzabrutinib vs. placebo, UAS7 reduction of 10 points or more” value [7] was 0.841 and the “RRD (%) … UAS7 reduction of 10 points or more” value [7] was −4.0 %. For the same compound, the “Responder, UAS7 reduction from baseline of 10 points or more” value [7] was 14 (36.8) n (%), the “UAS7 Change from baseline Mean (SD)” value [8] was −10.57 (9.36) and the “UAS7 Change from baseline Median” value [8] was −8.70. The “UAS7 Median” value [8] was 22.87, the “UAS7 Percent change … (SD)” value [8] was −33.23 (28.33) % and the “UAS7 Percent change from baseline Median” value [8] was −29.67%. The “UAS7 Change from baseline Mean (SD)” value [9] was −25.00 (NC), the “UAS7 Change from baseline Median” value [9] was −25.00 and the “UAS7 Mean (SD)” value [9] was 16.00 (NC). For the same compound, the “UAS7 Median” value [9] was 16.00, the “UAS7 Percent change … (SD)” value [9] was −60.98 (NC) % and the “UAS7 Percent change from baseline Median” value [9] was −60.98%. For the same compound, the “Non-responder, UAS7 reduction” value [10] was 24 (64.9) n (%), the “OR for rilzabrutinib vs. placebo, UAS7 reduction of 10 points or more” value [10] was 0.780 and the “RRD (%) … UAS7 reduction of 10 points or more” value [10] was −5.8 %. For the same compound, the “Responder, UAS7 reduction from baseline of 10 points or more” value [10] was 13 (35.1) n (%), the “Non-responder, UAS7 reduction” value [11] was 18 (43.9) n (%) and the “OR for rilzabrutinib vs. placebo, UAS7 reduction of 10 points or more” value [11] was 1.638. The “RRD (%) … UAS7 reduction of 10 points or more” value [11] was 11.7 %, the “Responder, UAS7 reduction from baseline of 10 points or more” value [11] was 23 (56.1) n (%) and the “UAS7 Change from baseline Mean (SD)” value [12] was −19.04 (11.40). The “UAS7 Change from baseline Median” value [12] was −18.92, the “UAS7 Mean (SD)” value [12] was 11.00 (9.90) and the “UAS7 Percent change … (SD)” value [12] was −62.32 (31.89) %. For the same compound, the “UAS7 Percent change from baseline Median” value [12] was −60.00%, the “UAS7 Change from baseline Mean (SD)” value [13] was −27.40 (16.76) and the “UAS7 Change from baseline Median” value [13] was −34.00. For the same compound, the “UAS7 Mean (SD)” value [13] was 7.80 (13.01), the “UAS7 Median” value [13] was 0.00 and the “UAS7 Percent change … (SD)” value [13] was −74.46 (35.38) %. For the same compound, the “UAS7 Percent change from baseline Median” value [13] was −100.00%, the “Non-responder, UAS7 reduction” value [14] was 15 (42.9) n (%) and the “OR for rilzabrutinib vs. placebo, UAS7 reduction of 10 points or more” value [14] was 1.805. The “Responder, UAS7 reduction from baseline of 10 points or more” value [14] was 20 (57.1) n (%).

Reference: patent US20260256792A1, “TREATMENT OF CHRONIC SPONTANEOUS URTICARIA BY ADMINISTERING (R)-2-[3-[4-AMINO-3-(2-FLUORO-4-PHENOXY-PHENYL)PYRAZOLO[3,4-D]PYRIMIDIN-1-YL]PIPERIDINE-1-CARBONYL]-4-METHYL-4-[4-(OXETAN-3-YL)PIPERAZIN-1-YL]PENT-2-ENENITRILE” (priority 2023, published 2026)
